Assay results reported in patent US11234943B2, “Use of reservatrol for the treatment of non-alcoholic fatty liver disease (NAFLD)” (priority 2016, dated 2022).

Tested on: patients with NAFLD
Test: Blood tests in 6-month study of NAFLD patients given resveratrol micronized formulation
Assay type: in vivo, human
Parameters: unit not given here
Method: In this study. 50 mg or 200 mg RSV daily were supplemented to the standard treatment of 44 patients with NAFLD for a period of 6 months and the therapeutic efficacy of RSV was investigated. All patients who participated in this process were volunteers and they have provided written consents as well filled out all the required documents. The patients were selected after they were firstly diagnosed with non-alcoholic fatty liver disease. The primary inclusion criterion was evidence of tatty liver on ultrasonography (LS), which is the most commonly, used imaging technique with remarkable sensitivity. The US findings in non-alcoholic fatty liver disease are:
Participants underwent clinical examination, electrocardiogram and abdominal ultrasound. Also, blood tests were carried out and the following parameters were measured: serum glutamic pyruvic transaminase (SGPT), serum glutamic oxaloacetic transaminase (SGOT), Alkaline phosphatase (ALP), gamma-glutamyl transpeptidase (gGT), glucose, total cholesterol levels, high-density lipoprotein (HDL), low-density lipoprotein (LDL), triglycerides (TG), insulin, insulin resistance, liver value, liver depth, kidney value, kidney depth and difference liver-kidney values.
Then, the patients were divided into two groups (randomly assigned) according to the treatment given to them. 22 patients were given treatment 50 mg RSV micronized formulation, Evelor capsules once daily, (Group A) and 22 patients were given treatment 200 mg RSV micronized formulation, Evelor capsules, once daily, (Group B). The observation period lasted for 6 months. There was a clinical examination, blood tests and an abdominal ultrasound at the beginning of the study (time 1) and in 6 months (time 2). All patients were on low fat diet and they were being followed up by nutritionist.
Two-way ANOVA with interaction (time and group) was used to test whether there are differences among dose levels, time levels and possible interaction among them. However, no significant interactions were discovered and standard two-way ANOVA was used without interactions. Moreover, an independent t-test was conducted to examine whether there were any differences between the values of physiological parameters at the beginning and the end of the study. A p-value<0.001 was considered to indicate a strongly statistically significant difference. The statistical program used was R 3.2.1.

[1] = Group A, 50 mg once daily, mean at time 1 (beginning of study)
[2] = Group A, 50 mg once daily, mean at time 2 (6 months)
[3] = Group B, 200 mg once daily, mean at time 1 (beginning of study)
[4] = Group B, 200 mg once daily, mean at time 2 (6 months)

Question: Which ALP [1] does the source give for `Oc1ccc(/C=C/c2cc(O)cc(O)c2)cc1` [Resveratrol, resveratrol] here?
Answer: The ALP was 63.63.

Question: What about the CH [1] of the same compound?
Answer: The CH was 194.50.

Question: What about the GLU [1] of the same compound?
Answer: Its GLU is 105.95.

Question: What about the HDL [1] of the same compound?
Answer: Its HDL is 48.60.

Question: What about the Insulin [1] of the same compound?
Answer: Its Insulin is 13.58.

Question: And the “Insulin Resistance” value [1]?
Answer: Its value is 1405.81.

Question: What about the LDL [1] of the same compound?
Answer: The LDL was 119.45.

Question: What about the SGOT [1] of the same compound?
Answer: The SGOT was 24.95.

Question: What about the SGPT [1] of the same compound?
Answer: Its SGPT is 36.09.

Question: And the TG [1]?
Answer: Its TG is 132.50.

Question: And the gGT [1]?
Answer: The gGT was 30.95.

Question: What about the ALP [2] of the same compound?
Answer: Its ALP is 59.23.

Question: What about the CH [2] of the same compound?
Answer: Its CH is 185.67.

Question: And the GLU [2]?
Answer: Its GLU is 96.57.

Question: What about the HDL [2] of the same compound?
Answer: Its HDL is 47.67.

Question: What about the Insulin [2] of the same compound?
Answer: The Insulin was 12.69.

Question: And the “Insulin Resistance” value [2]?
Answer: The value was 1226.04.

Question: And the LDL [2]?
Answer: Its LDL is 116.19.

Question: And the SGOT [2]?
Answer: Its SGOT is 26.33.

Question: And the SGPT [2]?
Answer: Its SGPT is 37.24.

Question: And the TG [2]?
Answer: Its TG is 109.76.

Question: And the gGT [2]?
Answer: The gGT was 27.00.

Question: What about the ALP [3] of the same compound?
Answer: Its ALP is 74.50.

Question: And the CH [3]?
Answer: Its CH is 194.27.

Question: What about the GLU [3] of the same compound?
Answer: The GLU was 121.18.

Question: What about the HDL [3] of the same compound?
Answer: Its HDL is 41.14.

Question: And the Insulin [3]?
Answer: Its Insulin is 12.62.

Question: And the “Insulin Resistance” value [3]?
Answer: Its value is 1541.04.

Question: What about the LDL [3] of the same compound?
Answer: The LDL was 118.75.

Question: And the SGOT [3]?
Answer: Its SGOT is 32.81.

Question: And the SGPT [3]?
Answer: Its SGPT is 47.05.

Question: What about the TG [3] of the same compound?
Answer: Its TG is 205.13.

Question: And the gGT [3]?
Answer: Its gGT is 29.20.

Question: What about the ALP [4] of the same compound?
Answer: Its ALP is 71.20.

Question: What about the CH [4] of the same compound?
Answer: The CH was 181.15.

Question: And the GLU [4]?
Answer: The GLU was 112.50.

Question: What about the HDL [4] of the same compound?
Answer: Its HDL is 41.70.

Question: What about the Insulin [4] of the same compound?
Answer: Its Insulin is 13.01.

Question: What about the “Insulin Resistance” value [4] of the same compound?
Answer: The value was 1489.52.

Question: What about the LDL [4] of the same compound?
Answer: Its LDL is 105.95.

Question: And the SGOT [4]?
Answer: Its SGOT is 30.90.

Question: What about the SGPT [4] of the same compound?
Answer: The SGPT was 41.70.

Question: And the TG [4]?
Answer: Its TG is 167.80.

Question: And the gGT [4]?
Answer: The gGT was 25.35.
